Results on 68 sequences are retold here after the supplement of paper PMC11208160.
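Further: IS621 bridge recombinase in Escherichia coli cells against a fixed T5 target plasmid.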

The nature of the series: recombinant UMI read abundance after kanamycin selection (control-corrected) (log10(CPM+1)); higher = more efficient recombination; extreme values may be limits of the assay; sequences stand for … in AGTGCAGAGAAAATCGGCCAGTTTTCTCTGCCTGCAGTCCGCATGCCGTGGGACCCCTTGGGTTCTAACCTGTTGCCTAGATTTATGCAGCGGACTGCCTTTCTCCCAAAGTGATAAACCGG…AGGTTGGTTTCACT; site = the 11-nt donor. Summed up: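 Sequenced counts of recombinant UMIs were turned into CPM, averaged across replicates and scaled with control-derived factors. The reported figure is log10(CPM+1). Those UMIs, each 12 nt long, tagged donor and donor-binding-loop pairs on a plasmid with a promoterless kanamycin gene, screened as a pool in Escherichia coli with IPTG (0.07 mM) plus kanamycin or without selection.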
“CCCAAATCATGGACCGGTTTTCCCGGTAATCCGTATTTGTC (site CCCAAATCTGA)”: the “recombinant UMI read abundance (log10)” value worked out at 1.93.

In the case of “CCCAAATCATGGACCGGTTTTCCCGGTAATCCGTATTTGTC (site CCCACATCTGA)”, the “recombinant UMI read abundance (log10)” value was 0.

For the sequence “CCCAAATCATGGACCGGTTTTCCCGGTAATCCGTATTTGTC (site CCCAGATCTGA)”, the “recombinant UMI read abundance (log10)” value is 0.

With “CCCAAATCATGGACCGGTTTTCCCGGTAATCCGTATTTGTC (site CCCATATCTGA)”, the “recombinant UMI read abundance (log10)” value came to 0.

On to “CCCAAGCCATGGACCGGTTTTCCCGGTAATCCGTATTTGCC (site CCCAAGCCTGG)”, for which the “recombinant UMI read abundance (log10)” value worked out at 0.

Take “CCCAAGCCATGGACCGGTTTTCCCGGTAATCCGTATTTGCC (site CCCCAGCCTGG)”: the “recombinant UMI read abundance (log10)” value was determined as 0.

“CCCAAGCCATGGACCGGTTTTCCCGGTAATCCGTATTTGCC (site CCCGAGCCTGG)”: the “recombinant UMI read abundance (log10)” value was 0.

Consider “CCCAAGCCATGGACCGGTTTTCCCGGTAATCCGTATTTGCC (site CCCTAGCCTGG)”, for which the “recombinant UMI read abundance (log10)” value was determined as 0.398.

As for “CCCAGCACATGGACCGGTTTTCCCGGTAATCCGTATTTGAA (site CCCAGCACTTT)”, the “recombinant UMI read abundance (log10)” value was determined as 0.515.

Turning to “CCCAGCTCATGGACCGGTTTTCCCGGTAATCCGTATTTGCA (site CCCAGCTCTTG)”, the “recombinant UMI read abundance (log10)” value was found to be 2.3.

Consider “CCCATACCATGGACCGGTTTTCCCGGTAATCCGTATTTGTG (site CCCATACCTCA)”, for which the “recombinant UMI read abundance (log10)” value was 0.0125.

Turning to “CCCATATCATGGACCGGTTTTCCCGGTAATCCGTATTTGGC (site CCCATATCTGA)”, the “recombinant UMI read abundance (log10)” value amounted to 0.

As for “CCCATATCATGGACCGGTTTTCCCGGTAATCCGTATTTGGC (site CCCATATCTGC)”, the “recombinant UMI read abundance (log10)” value stood at 0.

As to “CCCATATCATGGACCGGTTTTCCCGGTAATCCGTATTTGGC (site CCCATATCTGG)”, the “recombinant UMI read abundance (log10)” value worked out at 0.

Take “CCCATATCATGGACCGGTTTTCCCGGTAATCCGTATTTGGC (site CCCATATCTGT)”: the “recombinant UMI read abundance (log10)” value is 0.0107.

For the sequence “CCCATCTCATGGACCGGTTTTCCCGGTAATCCGTATTTGCT (site CCCATCTCTAG)”, the “recombinant UMI read abundance (log10)” value was determined as 1.63.

As to “CCCATCTCATGGACCGGTTTTCCCGGTAATCCGTATTTGTC (site CCCATATCTGA)”, the “recombinant UMI read abundance (log10)” value came to 0.

For “CCCATCTCATGGACCGGTTTTCCCGGTAATCCGTATTTGTC (site CCCATCTCTGA)”, the “recombinant UMI read abundance (log10)” value was found to be 1.35.

“CCCATCTCATGGACCGGTTTTCCCGGTAATCCGTATTTGTC (site CCCATGTCTGA)”: the “recombinant UMI read abundance (log10)” value came to 0.

Consider “CCCATCTCATGGACCGGTTTTCCCGGTAATCCGTATTTGTC (site CCCATTTCTGA)”, for which the “recombinant UMI read abundance (log10)” value stood at 0.

For “CCCCAAGCATGGACCGGTTTTCCCGGTAATCCGTATTTGGC (site CCCCAAGCTGC)”, the “recombinant UMI read abundance (log10)” value was determined as 0.

With “CCCCACACATGGACCGGTTTTCCCGGTAATCCGTATTTGCA (site CCCCACACTTA)”, the “recombinant UMI read abundance (log10)” value came out at 0.0196.

Turning to “CCCCACACATGGACCGGTTTTCCCGGTAATCCGTATTTGCA (site CCCCACACTTC)”, the “recombinant UMI read abundance (log10)” value stood at 0.0185.

In the case of “CCCCACACATGGACCGGTTTTCCCGGTAATCCGTATTTGCA (site CCCCACACTTG)”, the “recombinant UMI read abundance (log10)” value was found to be 1.88.

For “CCCCACACATGGACCGGTTTTCCCGGTAATCCGTATTTGCA (site CCCCACACTTT)”, the “recombinant UMI read abundance (log10)” value turned out to be 0.16.

On to “CCCCACGCATGGACCGGTTTTCCCGGTAATCCGTATTTGGC (site CCCCACGCTGC)”, for which the “recombinant UMI read abundance (log10)” value worked out at 0.767.

Regarding “CCCCACGCATGGACCGGTTTTCCCGGTAATCCGTATTTGTA (site CCCCACACTTA)”, the “recombinant UMI read abundance (log10)” value is 0.643.

As for “CCCCACGCATGGACCGGTTTTCCCGGTAATCCGTATTTGTA (site CCCCACCCTTA)”, the “recombinant UMI read abundance (log10)” value worked out at 0.00405.

For the sequence “CCCCACGCATGGACCGGTTTTCCCGGTAATCCGTATTTGTA (site CCCCACGCTTA)”, the “recombinant UMI read abundance (log10)” value was 0.81.

In the case of “CCCCACGCATGGACCGGTTTTCCCGGTAATCCGTATTTGTA (site CCCCACTCTTA)”, the “recombinant UMI read abundance (log10)” value was 0.923.

Regarding “CCCCAGCCATGGACCGGTTTTCCCGGTAATCCGTATTTGCC (site CCCAAGCCTGG)”, the “recombinant UMI read abundance (log10)” value came to 0.

On to “CCCCAGCCATGGACCGGTTTTCCCGGTAATCCGTATTTGCC (site CCCCAGCCTGG)”, for which the “recombinant UMI read abundance (log10)” value was determined as 0.

For the sequence “CCCCAGCCATGGACCGGTTTTCCCGGTAATCCGTATTTGCC (site CCCGAGCCTGG)”, the “recombinant UMI read abundance (log10)” value is 0.

As to “CCCCAGCCATGGACCGGTTTTCCCGGTAATCCGTATTTGCC (site CCCTAGCCTGG)”, the “recombinant UMI read abundance (log10)” value was determined as 0.

For “CCCCGTCCATGGACCGGTTTTCCCGGTAATCCGTATTTGAA (site CCCCGTCCTTT)”, the “recombinant UMI read abundance (log10)” value was determined as 0.00894.

For “CCCGAGACATGGACCGGTTTTCCCGGTAATCCGTATTTGTT (site CCCGAGACTAA)”, the “recombinant UMI read abundance (log10)” value worked out at 0.475.

Turning to “CCCGAGCCATGGACCGGTTTTCCCGGTAATCCGTATTTGCC (site CCCAAGCCTGG)”, the “recombinant UMI read abundance (log10)” value was 0.

As for “CCCGAGCCATGGACCGGTTTTCCCGGTAATCCGTATTTGCC (site CCCCAGCCTGG)”, the “recombinant UMI read abundance (log10)” value stood at 0.

As for “CCCGAGCCATGGACCGGTTTTCCCGGTAATCCGTATTTGCC (site CCCGAGCCTGG)”, the “recombinant UMI read abundance (log10)” value was 0.

Turning to “CCCGAGCCATGGACCGGTTTTCCCGGTAATCCGTATTTGCC (site CCCTAGCCTGG)”, the “recombinant UMI read abundance (log10)” value is 0.

Turning to “CCCGGCCCATGGACCGGTTTTCCCGGTAATCCGTATTTGTT (site CACGGCCCTAA)”, the “recombinant UMI read abundance (log10)” value was determined as 0.00644.

Take “CCCGGCCCATGGACCGGTTTTCCCGGTAATCCGTATTTGTT (site CCCGGCCCTAA)”: the “recombinant UMI read abundance (log10)” value was 0.1.

Turning to “CCCGGCCCATGGACCGGTTTTCCCGGTAATCCGTATTTGTT (site CGCGGCCCTAA)”, the “recombinant UMI read abundance (log10)” value was 0.00519.

For the sequence “CCCGGCCCATGGACCGGTTTTCCCGGTAATCCGTATTTGTT (site CTCGGCCCTAA)”, the “recombinant UMI read abundance (log10)” value is 0.

As to “CCCGGGCCATGGACCGGTTTTCCCGGTAATCCGTATTTGCA (site CCCGGACCTTG)”, the “recombinant UMI read abundance (log10)” value turned out to be 0.

As for “CCCGGGCCATGGACCGGTTTTCCCGGTAATCCGTATTTGCA (site CCCGGCCCTTG)”, the “recombinant UMI read abundance (log10)” value came out at 0.

On to “CCCGGGCCATGGACCGGTTTTCCCGGTAATCCGTATTTGCA (site CCCGGGCCTTG)”, for which the “recombinant UMI read abundance (log10)” value was found to be 0.

Regarding “CCCGGGCCATGGACCGGTTTTCCCGGTAATCCGTATTTGCA (site CCCGGTCCTTG)”, the “recombinant UMI read abundance (log10)” value is 0.

“CCCGGGGCATGGACCGGTTTTCCCGGTAATCCGTATTTGCA (site CCCGGGGCTTG)”: the “recombinant UMI read abundance (log10)” value stood at 1.23.

For “CCCGGTCCATGGACCGGTTTTCCCGGTAATCCGTATTTGAA (site CCCGGTCCTTA)”, the “recombinant UMI read abundance (log10)” value was determined as 0.

On to “CCCGGTCCATGGACCGGTTTTCCCGGTAATCCGTATTTGAA (site CCCGGTCCTTC)”, for which the “recombinant UMI read abundance (log10)” value came out at 0.00874.

For “CCCGGTCCATGGACCGGTTTTCCCGGTAATCCGTATTTGAA (site CCCGGTCCTTG)”, the “recombinant UMI read abundance (log10)” value was found to be 0.

For “CCCGGTCCATGGACCGGTTTTCCCGGTAATCCGTATTTGAA (site CCCGGTCCTTT)”, the “recombinant UMI read abundance (log10)” value was found to be 0.00816.

Turning to “CCCGGTCCATGGACCGGTTTTCCCGGTAATCCGTATTTGCC (site CCCGGTCCTAG)”, the “recombinant UMI read abundance (log10)” value is 0.

As to “CCCGGTCCATGGACCGGTTTTCCCGGTAATCCGTATTTGCC (site CCCGGTCCTCG)”, the “recombinant UMI read abundance (log10)” value stood at 0.0293.

Regarding “CCCGGTCCATGGACCGGTTTTCCCGGTAATCCGTATTTGCC (site CCCGGTCCTGG)”, the “recombinant UMI read abundance (log10)” value worked out at 0.

Consider “CCCGGTCCATGGACCGGTTTTCCCGGTAATCCGTATTTGCC (site CCCGGTCCTTG)”, for which the “recombinant UMI read abundance (log10)” value is 0.00573.

For “CCCGTTCCATGGACCGGTTTTCCCGGTAATCCGTATTTGCA (site CCCGATCCTTG)”, the “recombinant UMI read abundance (log10)” value came out at 0.

Consider “CCCGTTCCATGGACCGGTTTTCCCGGTAATCCGTATTTGCA (site CCCGCTCCTTG)”, for which the “recombinant UMI read abundance (log10)” value was 0.

Take “CCCGTTCCATGGACCGGTTTTCCCGGTAATCCGTATTTGCA (site CCCGGTCCTTG)”: the “recombinant UMI read abundance (log10)” value turned out to be 0.

Take “CCCGTTCCATGGACCGGTTTTCCCGGTAATCCGTATTTGCA (site CCCGTTCCTTG)”: the “recombinant UMI read abundance (log10)” value came out at 0.

With “CCCTAACCATGGACCGGTTTTCCCGGTAATCCGTATTTGAA (site CCCTAACCTTT)”, the “recombinant UMI read abundance (log10)” value worked out at 0.0156.

In the case of “CCCTAACCATGGACCGGTTTTCCCGGTAATCCGTATTTGCC (site CCCTAACCTGG)”, the “recombinant UMI read abundance (log10)” value amounted to 0.

Consider “CCCTAACCATGGACCGGTTTTCCCGGTAATCCGTATTTGCC (site CCCTACCCTGG)”, for which the “recombinant UMI read abundance (log10)” value turned out to be 0.

Regarding “CCCTAACCATGGACCGGTTTTCCCGGTAATCCGTATTTGCC (site CCCTAGCCTGG)”, the “recombinant UMI read abundance (log10)” value turned out to be 0.

Take “CCCTAACCATGGACCGGTTTTCCCGGTAATCCGTATTTGCC (site CCCTATCCTGG)”: the “recombinant UMI read abundance (log10)” value amounted to 0.

Consider “CCCTACACATGGACCGGTTTTCCCGGTAATCCGTATTTGCT (site CACTACACTAG)”, for which the “recombinant UMI read abundance (log10)” value is 0.

Regarding “CCCTACACATGGACCGGTTTTCCCGGTAATCCGTATTTGCT (site CCCTACACTAG)”, the “recombinant UMI read abundance (log10)” value was determined as 1.12.
